Experiments:
Type in all cases: in vivo
[1] = test system: Italian ryegrass (Lolium multiflorum); assay: Test D pre-/postemergence plant response; conditions: Postemergence; for Plant response rating (scale 0 to 100), Ryegrass, Italian: 16 g ai/ha; for Plant response rating, Ryegrass, Italian: 125 g ai/ha
Method in brief: (§1)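 Visual rating, 0–100 scale (0 = no effect, 100 = complete control), versus untreated controls 13 to 15 days after treatment in greenhouse. Preemergence: seeds in loam/sand soil. Postemergence: 2 to 18 cm plants, 1- to 4-leaf stage, peat-based medium. Compounds formulated in non-phytotoxic solvent plus surfactant.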

[2] = test system: giant foxtail (Setaria faberii); assay: Test D pre-/postemergence plant response; conditions: Postemergence; for Plant response rating (scale 0 to 100), Foxtail, Giant: 16 g ai/ha; for Foxtail, Giant plant response rating: 31 g ai/ha, scale 0 to 100 (0 no effect, 100 complete control); for Plant response rating, Foxtail, Giant: scale 0 to 100, 0 no effect, 100 complete control
Method in brief: as §1

[3] = test system: large (Lg) crabgrass (Digitaria sanguinalis); assay: Test D pre-/postemergence plant response; conditions: Postemergence; for Plant response rating (scale 0 to 100), Crabgrass, Large: 16 g ai/ha; for Crabgrass, Large plant response rating: 31 g ai/ha, scale 0 to 100 (0 no effect, 100 complete control); for Plant response rating, Crabgrass, Large: scale 0 to 100, 0 no effect, 100 complete control
Method in brief: as §1

[4] = test system: barnyardgrass (Echinochloa crus-galli); assay: Test D pre-/postemergence plant response; conditions: Postemergence; for Plant response rating (scale 0 to 100), Barnyardgrass: 16 g ai/ha; for Barnyardgrass plant response rating: 31 g ai/ha, scale 0 to 100 (0 no effect, 100 complete control); for Plant response rating, Barnyardgrass: scale 0 to 100, 0 no effect, 100 complete control
Method in brief: as §1

[5] = test system: corn (Zea mays); assay: Test D pre-/postemergence plant response; conditions: Postemergence; for Plant response rating (scale 0 to 100), Corn: 16 g ai/ha; for Corn plant response rating: 31 g ai/ha, scale 0 to 100 (0 no effect, 100 complete control); for Plant response rating, Corn: scale 0 to 100, 0 no effect, 100 complete control
Method in brief: as §1

[6] = test system: blackgrass (Alopecurus myosuroides); assay: Test D pre-/postemergence plant response; conditions: Postemergence; for Plant response rating (scale 0 to 100), Blackgrass: 16 g ai/ha; for Blackgrass plant response rating: 31 g ai/ha, scale 0 to 100 (0 no effect, 100 complete control); for Plant response rating, Blackgrass: scale 0 to 100, 0 no effect, 100 complete control
Method in brief: as §1

[7] = test system: galium (catchweed bedstraw, Galium aparine); assay: Test D pre-/postemergence plant response; conditions: Postemergence; for Plant response rating (scale 0 to 100), Galium: 16 g ai/ha; for Galium plant response rating: 31 g ai/ha, scale 0 to 100 (0 no effect, 100 complete control); for Plant response rating, Galium: scale 0 to 100, 0 no effect, 100 complete control
Method in brief: as §1

[8] = test system: ragweed (common ragweed, Ambrosia elatior); assay: Test D pre-/postemergence plant response; conditions: Postemergence; for Plant response rating (scale 0 to 100), Ragweed: 16 g ai/ha; for Plant response rating, Ragweed: 125 g ai/ha
Method in brief: as §1

[9] = test system: yellow nutsedge (Cyperus esculentus); assay: Test D pre-/postemergence plant response; conditions: Postemergence; for Plant response rating (scale 0 to 100), Nutsedge, Yellow: 16 g ai/ha; for Plant response rating, Nutsedge, Yellow: 125 g ai/ha
Method in brief: as §1

[10] = test system: oilseed rape (Brassica napus); assay: Test D pre-/postemergence plant response; conditions: Postemergence; for Plant response rating (scale 0 to 100), Oilseed Rape: 16 g ai/ha; for Plant response rating, Oilseed Rape: 125 g ai/ha
Method in brief: as §1

[11] = test system: pigweed (Amaranthus retroflexus); assay: Test D pre-/postemergence plant response; conditions: Postemergence; for Plant response rating (scale 0 to 100), Pigweed: 16 g ai/ha; for Plant response rating, Pigweed: 125 g ai/ha
Method in brief: as §1

[12] = test system: Italian ryegrass (Lolium multiflorum); assay: Test B pre-/postemergence plant response
Method in brief: (§2)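 Evaluation is visual, about 10 days after application, rating injury from 0 (none) to 100 (complete control) relative to untreated controls. Application was a preemergence soil spray on seeded pots or a postemergence spray on one- to two-leaf plants.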

[13] = test system: ragweed (common ragweed, Ambrosia elatior); assay: Test B pre-/postemergence plant response
Method in brief: as §2

[14] = test system: kochia (Kochia scoparia); assay: Test B pre-/postemergence plant response
Method in brief: as §2

[15] = 31 g ai/ha, scale 0 to 100 (0 no effect, 100 complete control)
[16] = 62 g ai/ha, scale 0 to 100, 0 no effect, 100 complete control
[17] = scale 0 to 100, 0 no effect, 100 complete control
[18] = 31 g ai/ha, Preemergence, 0 to 100 scale where 0 is no effect and 100 is complete control
[19] = 125 g ai/ha, postemergence, 0 to 100 scale, 0 no effect, 100 complete control
[20] = Postemergence, 31 g ai/ha, 0 to 100 scale (0 no effect, 100 complete control)
[21] = Preemergence, 125 g ai/ha, 0 to 100 scale (0 no effect, 100 complete control)

FC(Cl)(Cl)c1cc(-c2ccccc2Oc2ncc(Cl)cn2)no1 [Compound 198]
30: Plant response rating, Crabgrass, Large ([3]; 125 g ai/ha) | Plant response rating (scale 0 to 100), Ragweed [8] | Plant response rating (scale 0 to 100), Oilseed Rape [10] | Kochia plant response rating [14, 21]
50: Oilseed Rape plant response rating [10, 15] | Plant response rating, Ryegrass, Italian [12, 19]
15: Foxtail, Giant plant response rating [2] | Plant response rating, Foxtail, Giant ([2]; 62 g ai/ha) | Crabgrass, Large plant response rating [3] | Plant response rating, Corn ([5]; 62 g ai/ha) | Plant response rating, Corn ([5]; 125 g ai/ha) | Plant response rating, Blackgrass ([6]; 125 g ai/ha) | Nutsedge, Yellow plant response rating [9, 16]
55: Ragweed plant response rating [8, 15] | Ragweed plant response rating [8, 16]
10: Ryegrass, Italian plant response rating [1, 16] | Plant response rating, Ryegrass, Italian [1, 17] | Plant response rating (scale 0 to 100), Foxtail, Giant [2] | Plant response rating (scale 0 to 100), Crabgrass, Large [3] | Plant response rating (scale 0 to 100), Barnyardgrass [4] | Barnyardgrass plant response rating [4] | Corn plant response rating [5] | Plant response rating, Blackgrass ([6]; 62 g ai/ha) | Plant response rating, Nutsedge, Yellow [9, 17] | Plant response rating, Ryegrass, Italian [12, 20] | Plant response rating, Ragweed [13, 20] | Ragweed plant response rating [13, 21]
85: Plant response rating (scale 0 to 100), Pigweed [11]
35: Plant response rating, Barnyardgrass ([4]; 125 g ai/ha)
20: Plant response rating, Crabgrass, Large ([3]; 62 g ai/ha) | Plant response rating, Barnyardgrass ([4]; 62 g ai/ha) | Ryegrass, Italian plant response rating [12, 21] | Plant response rating, Ragweed [13, 19]
5: Plant response rating (scale 0 to 100), Corn [5] | Plant response rating (scale 0 to 100), Blackgrass [6] | Blackgrass plant response rating [6] | Plant response rating (scale 0 to 100), Nutsedge, Yellow [9] | Nutsedge, Yellow plant response rating [9, 15]
75: Galium plant response rating [7]
60: Plant response rating, Ragweed [8, 17] | Oilseed Rape plant response rating [10, 16]
25: Plant response rating, Foxtail, Giant ([2]; 125 g ai/ha)
0: Plant response rating (scale 0 to 100), Ryegrass, Italian [1] | Ryegrass, Italian plant response rating [1, 15] | Plant response rating, Ryegrass, Italian [12, 18] | Plant response rating, Ragweed [13, 18] | Plant response rating, Kochia [14, 18]
80: Plant response rating, Kochia [14, 19] | Plant response rating, Kochia [14, 20]
70: Plant response rating (scale 0 to 100), Galium [7]
90: Plant response rating, Oilseed Rape [10, 17] | Pigweed plant response rating [11, 16]
100: Plant response rating, Pigweed [11, 17]
98: Plant response rating, Galium ([7]; 62 g ai/ha) | Plant response rating, Galium ([7]; 125 g ai/ha) | Pigweed plant response rating [11, 15]

FC(F)c1cc(-c2ccccc2Oc2ncc(Br)cn2)on1 [Compound 212]
5: Plant response rating, Ryegrass, Italian [1, 17] | Plant response rating (scale 0 to 100), Crabgrass, Large [3] | Plant response rating (scale 0 to 100), Barnyardgrass [4] | Barnyardgrass plant response rating [4] | Plant response rating (scale 0 to 100), Corn [5] | Corn plant response rating [5] | Nutsedge, Yellow plant response rating [9, 15] | Plant response rating, Nutsedge, Yellow [9, 17]
10: Plant response rating (scale 0 to 100), Foxtail, Giant [2] | Foxtail, Giant plant response rating [2] | Plant response rating, Foxtail, Giant ([2]; 125 g ai/ha) | Crabgrass, Large plant response rating [3] | Plant response rating, Crabgrass, Large ([3]; 62 g ai/ha) | Plant response rating, Corn ([5]; 62 g ai/ha) | Plant response rating, Blackgrass ([6]; 125 g ai/ha) | Plant response rating (scale 0 to 100), Nutsedge, Yellow [9] | Nutsedge, Yellow plant response rating [9, 16] | Plant response rating (scale 0 to 100), Oilseed Rape [10]
55: Ragweed plant response rating [8, 16]
100: Plant response rating (scale 0 to 100), Pigweed [11] | Pigweed plant response rating [11, 15] | Pigweed plant response rating [11, 16] | Plant response rating, Pigweed [11, 17] | Plant response rating, Kochia [14, 19]
65: Plant response rating, Galium ([7]; 62 g ai/ha)
20: Oilseed Rape plant response rating [10, 16] | Plant response rating, Ryegrass, Italian [12, 19] | Plant response rating, Ragweed [13, 20]
35: Plant response rating (scale 0 to 100), Ragweed [8] | Plant response rating, Oilseed Rape [10, 17]
60: Plant response rating (scale 0 to 100), Galium [7] | Galium plant response rating [7] | Plant response rating, Ragweed [8, 17] | Plant response rating, Ragweed [13, 19]
15: Plant response rating, Foxtail, Giant ([2]; 62 g ai/ha) | Plant response rating, Crabgrass, Large ([3]; 125 g ai/ha) | Plant response rating, Barnyardgrass ([4]; 62 g ai/ha) | Plant response rating, Corn ([5]; 125 g ai/ha)
80: Plant response rating, Galium ([7]; 125 g ai/ha)
90: Plant response rating, Kochia [14, 20] | Kochia plant response rating [14, 21]
0: Plant response rating (scale 0 to 100), Ryegrass, Italian [1] | Ryegrass, Italian plant response rating [1, 15] | Ryegrass, Italian plant response rating [1, 16] | Plant response rating (scale 0 to 100), Blackgrass [6] | Blackgrass plant response rating [6] | Plant response rating, Blackgrass ([6]; 62 g ai/ha) | Plant response rating, Ryegrass, Italian [12, 18] | Plant response rating, Ryegrass, Italian [12, 20] | Plant response rating, Ragweed [13, 18]
25: Plant response rating, Barnyardgrass ([4]; 125 g ai/ha)
40: Ragweed plant response rating [8, 15] | Ryegrass, Italian plant response rating [12, 21] | Ragweed plant response rating [13, 21] | Plant response rating, Kochia [14, 18]

— patent publication US10131652B2, “Pyrimidinyloxy benzene derivatives as herbicides” (E. I. DU PONT DE NEMOURS AND COMPANY, priority 2014, dated 2018)
